How the values were obtained:
[1] = biological target: T1, HIV-1 integrase (wild-type IN) (Human immunodeficiency virus type 1 group M subtype B, UniProt P12497); experiment: HIV-1 integrase strand transfer assay (32P-labeled 21-mer, gel); type: biochemical
Method in brief: (§1)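 Wild-type IN at 200 nM preincubated with inhibitor 30 min at 30 °C in MnCl2 (7.5 mM), pH 7.2 MOPS buffer with 10% DMSO, then 20 nM 5′-32P-labeled 21-mer duplex added for 1 h. 19-mer and strand-transfer products resolved on denaturing 20% gels by phosphorimaging; IC50 from log concentration versus % inhibition.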

[2] = biological target: T1, HIV-1 integrase (wild-type IN); experiment: HIV-1 integrase 3′-processing assay (32P-labeled 21-mer, gel); type: biochemical
Method in brief: as §1

[3] = unit inferred, read-out: IN inhibition activity Strand transfer
[4] = unit inferred, read-out: IN inhibition activity 3′-processing
[5] = Table 53, structurally diverse compounds, read-out: IN inhibition activity Strand transfer
[6] = Table 53, structurally diverse compounds, read-out: IN inhibition activity 3′-processing
[7] = wild-type IN 200 nM, 7.5 mM MnCl2, read-out: Inhibition of IN Catalytic Activities IC50 (μM) Strand Transfer
[8] = wild-type IN 200 nM, 7.5 mM MnCl2, read-out: Inhibition of IN Catalytic Activities IC50 (μM) 3′-processing

Structure (SMILES)	IC50 [1, 3]	IC50 [2, 4]	IC50 [1, 7]	IC50 [2, 8]	further results
CSc1ccc(/C=N/NC(=O)CSc2nnc(-c3ccc(Cl)cc3)n2-c2ccccc2)cc1 [HD39]	> 100 µM	> 100 µM			
O=C(O)C(O)C(O)c1nc2cc3ccccc3cc2[nH]1 (centres unmarked) [GLD20]					IC50 [1, 5]: 46 ± 12 µM; IC50 [2, 6]: > 100 µM
CCc1ccc(C=C2SC(=S)N(CC(=O)Nc3cccc(C(=O)O)c3)C2=O)cc1 [Compound X91]			> 100 µM	> 100 µM	
COc1ccc(-c2nnc(SCC(=O)N/N=C/c3ccccc3C(=O)O)n2-c2ccccc2)cc1OC [GLD38]	> 100 µM	> 100 µM			
Nc1nonc1C(=O)N/N=C/c1ccc(-c2cccc(C(=O)O)c2)o1 [AV15A5]	88 ± 21 µM	> 100 µM			
O=C(NC1CC1)c1c[nH]c2ccc(S(=O)(=O)Nc3cccc(C(F)(F)F)c3)cc2c1=O [ROM3A10]			92 µM	93 µM	
COc1ccc(C2C(C(=O)c3ccc(Br)cc3)=C(O)C(=O)N2c2cccc(C(F)(F)F)c2)cc1OC (centres unmarked) [AS134]	26 ± 9 µM	47 ± 7 µM			
O=C(O)c1ccc(S(=O)(=O)c2ccc3c(c2)C(=O)N(c2ccc(O)c(C(=O)O)c2)C3=O)cc1 [Compound X125]			44 ± 4 µM	66 ± 6 µM	
COc1ccc(C2C(C(=O)c3ccc(Br)cc3)=C(O)C(=O)N2CCc2ccccc2)cc1OC (centres unmarked) [AS143]	42 ± 10 µM	60 ± 3 µM			
O=C(C1=C(O)C(=O)N(c2nc3ccccc3s2)C1c1ccc2c(c1)OCO2)c1ccccc1 (centres unmarked) [Compound M28A8]	21 ± 10 µM	57 ± 10 µM			
CCOc1cc(/C=C2\SC(=S)N(NC(=O)c3ccccc3O)C2=O)ccc1O [Compound X223]			38 ± 14 µM	70 ± 27 µM	
COc1cc(C(=O)N/N=C/c2ccc(-c3cccc(C(=O)O)c3)o2)cc(OC)c1OC [AV15A38]	49 ± 12 µM	> 100 µM			
N#Cc1c(/N=C/c2ccc(-c3cccc(C(=O)O)c3)o2)sc2c1CCCC2 [AV15A23]	62 ± 7 µM	89 ± 20 µM			
O=C(O)CSc1nnc(-c2ccco2)c(-c2ccco2)n1 [GLD2]	5 ± 3 µM	18 ± 4 µM			
Cc1ccc(C(=O)O)cc1NC(=O)CSc1nc2ccccc2s1 [GLD59]					IC50 [1, 5]: 17 ± 2 µM; IC50 [2, 6]: 63 ± 22 µM
CCOc1ccc(N(CC(=O)Nc2ccccc2C(=O)O)S(=O)(=O)c2ccc(Cl)cc2)cc1 [OT27]			47 ± 22 µM	69 ± 15 µM	
Cc1ccc(-n2c(SCC(=O)NNC(=O)c3ccccc3O)nnc2-c2ccccc2)cc1 [AS120]	12 ± 8 µM	23 ± 6 µM			
COc1cccc(NC(=O)c2sc3[nH]c(=O)c(C(=O)O)cc3c2N)c1 [GLD45]	43 ± 12 µM	82 ± 13 µM			
O=C(NC(=S)Nc1ccc(O)c(C(=O)O)c1)c1ccccc1 [Compound X199]			> 100 µM	> 100 µM	
COC(=O)c1ccc(/C=N/Nc2nc3nonc3nc2Nc2ccccc2F)cc1 [AV15A19]	> 100 µM	> 100 µM			
CC(C)Cn1c(=O)c(C(=O)Nc2ccccc2S(N)(=O)=O)c(O)c2ccccc21 [Compound X228]			16 µM	40 µM	
O=C(N/N=C/c1cc(Br)ccc1O)/C(=C/C=C/c1ccccc1)NC(=O)c1ccccc1 [Compound X234]					IC50 ([1]; unit inferred, read-out: HIV-1 IN Inhibitory Activities Strand transfer): 23 µM; IC50 ([2]; unit inferred, read-out: HIV-1 IN Inhibitory Activities 3′-processing): 90 µM
Cc1ccc(C(=O)C2=C(O)C(=O)N(c3nccs3)C2c2ccc(Cl)cc2)cc1 (centres unmarked) [Compound M28A6]	39 ± 3 µM	56 ± 10 µM			
O=C(O)CSc1nc(-c2ccccc2)cc(C(F)(F)F)n1 [GLD2A4]	> 100 µM	> 100 µM			
CC(=Cc1ccccc1)C=C1SC(=S)N(CCC(=O)Nc2ccc(O)c(C(=O)O)c2)C1=O [Compound X185]			23 ± 3 µM	36 ± 23 µM	
O=C(O)c1cccc(-c2ccc(/C=N/NC(=O)c3ccc(C(=O)N/N=C/c4ccc(-c5cccc(C(=O)O)c5)o4)cc3)o2)c1 [AV15A20]	95 µM	> 100 µM			
CCn1cc(C(=O)NN)c(=O)c2cc(F)c(N3CCCCCC3)cc21 [ROM3A2]			98 µM	94 µM	
O=C(O)c1c[nH]c2c(F)c(F)c(F)c(NCc3ccccc3)c2c1=O [ROM3]			12 µM	> 12 µM	

From patent US8183236B2, “Compounds with HIV-1 integrase inhibitory activity and use thereof as anti-HIV/AIDS therapeutics” (University of Southern California, priority 2007, dated 2012)
